Source: patent US20060099712A1, “Correlation of anti-cancer activity of dyes with redox potentials” (Eastman Kodak Company, priority 2004, published 2006)
Converted amounts (≈) assume the structure as drawn. “And” between values parts separate entries of the source, which are not always exact repeats. Identical values can stand only once. Like-named read-outs stand apart in the source and are kept apart here.

Assays:
[1] = tested on: CX-1 Human Colon Carcinoma; experiment: Clonogenic dye screening assay, CX-1 cells (IC50); assay type: cell-based; parameters: CX: unit not given here; settings: for IC50: Homo sapiens; for CV/CX (selectivity, kill ratio): ratio of IC50 in normal CV-1 line to IC50 in carcinoma CX-1 line; for CX (IC50 in the CX-1 cell line): 3 hrs treatment, unit from method b117-118; for Selectivity: Table 1, cell line not given, values equal CV/CX of Table II; for CV/CX: selectivity ratio of IC50 values
Summary of the method: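 Cells seeded 16-30 h ahead (2000 CX-1 or 1000 CV-1 per well), exposed to serially diluted dyes for 3 h at 37 °C, rinsed three times, then grown into colonies. Eight-point curves spanned 0.32-0.0015 μg/mL (CX-1) and 3.2-0.025 μg/mL (CV-1). IC50 is the concentration killing 50% of cells.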

[2] = tested on: CV-1 Normal Monkey Kidney Epithelial; experiment: Clonogenic dye screening assay, CV-1 cells (IC50); assay type: cell-based, African green monkey; settings: for IC50: Primates; for CV (IC50 in the CV-1 cell line): 3 hrs treatment, unit from method b117-118
Description: CX-1 is a cancerous human colon adenocarcinoma cell line. CV-1 is a non-cancerous control, which is a kidney epithelial cell line from an African green monkey. IC50 is the dye concentration at which 50% of the cells are killed. Selectivity or kill ratio is defined as the ratio of […] at IC50 for both CX-1 and CV-1. A ratio with a high number indicates a high selectivity.
The dyes were screened in two cell lines. CX-1 is a human colon adenocarcinoma cell line. CV-1 is a kidney epithelial cell line from an African green monkey. CV-1 was used as a reference because no normal human epithelial cell line is available for clonogenic assay.
In the initial screen, dyes were examined at six different concentrations to generate a dose response curve. An IC50 value, the concentration at which 50% of the cells are killed, was then calculated. Initially, a dye concentration of 1.0 μg/mL was the highest examined for the CX-1 cell line and 0.005 μg/mL was the lower limit. The corresponding limits on the CV-1 cell line were […].
The screening procedure used a response curve that was determined from eight dye concentrations. The upper and lower limits of CX-1 were 0.32 and 0.0015 μg/mL, respectively, and the corresponding revised limits on CV-1 were 3.2 and 0.025 μg/mL. The screening results were reported by assigning an IC50 value to each dye for the CV-1 and CX-1 cell lines. These values will be referred to herein simply as CV and CX. The most desirable result would be to have a dye that was highly toxic to carcinoma cells but nontoxic to ‘normal’ cells. One measure of this type of selectivity is the ratio of the IC50's in the normal cell line to that in the carcinoma line, CV/CX.
Compounds are screened via an in vitro assay. CV-1 and CX-1 cells are seeded into separate assay plates. The plates are treated with varying concentrations of test compounds, rinsed, and colonies allowed to grow. IC50's are determined and drugs evaluated based on their selectivity and toxicity. Assay Steps: • I. Seeding Cells • II. Weighing • III. Preparation of Solution • IV. Treatment • V. Rinsing and Feeding • VI. Fixing • VII. IC50 Determination I. Seeding Cells
The cells should be seeded 16-30 hours before treatment. The media for CV-1 cells is DME+5% calf serum +5% Nuserum. The media for CX-1 cells is RPMI/DME (50/50)+5% calf serum +5% Nuserum.
(c) number of cells based on 2000 CX-1 cells/well and 1000 CV-1 cells/well. NOTE: Always make enough cell suspension for 1 extra plate to allow for volume loss during transfers.
• (a) For CV-1: 256 ug/ml-256 ul of 1 mg/ml stock +744 ul DMSO • (b) For CX-1: 25.6 ug/ml-100 ul of 256 ug/ml+900 ul DMSO IV. Treatment • 1. Each plate is treated with 4 test compounds, one positive control and one negative control. • 2. Serial dilutions of the compounds are made in the following way:
2 multi-well pipetters are used. One is set for 10 ul and one for 200 ul. Each is equipped with 6 tips spaced such that they fit into the 6 rows of a plate. 390 ul of media is added to the first column of each plate. 10 ul each of 4 compound solutions, a positive and a negative control are taken up and put into the first column of wells. The 200 ul pipetter is then placed in the same wells, pipetted up and down 3 times and two 200 ul aliquots are moved to the next column of wells. This column is pipetted up and down 3 times and 400 ul moved to column 3, etc. The final 400 ul excess from column 8 is discarded.
• 3. Label the plates along the front, each row −1 compound. • 4. Incubate the plates at 37° C. for 3 hrs. V. Rinsing • 1. Prepare several bottles of CX-1 and CV-1 media. • 2. Check for precipitate in first column of each plate and note. • 3. Starting with the plates treated first, rinse several plates at a time by aspirating the treatments and refilling each well with 0.5-1.0 ml of the rinse media. Aspirate and refill 2 more times for a total of 3 rinses. • 4.

[3] = CX-1, 3 hrs treatment, colonies after 7-10 days, unit from method, read-out: CX (IC50 in the CX-1 cell line)
[4] = CV-1, 3 hrs treatment, colonies after 7-10 days, unit from method, read-out: CV (IC50 in the CV-1 cell line)
[5] = CX-1, Table XVI, unsymmetrical dyes, CX-1 cells, read-out: CX
[6] = CV-1, Table XVI, unsymmetrical dyes, CV-1 cells, read-out: CV
[7] = CX-1, read-out: CX (IC50 in the CX-1 cell line)
[8] = CV-1, read-out: CV (IC50 in the CV-1 cell line)

SMILES	IC50 [1, 3]	CV/CX (selectivity, kill ratio) [1]	IC50 [2, 4]	also measured
CCN1/C(=C/C=C/c2sc3cc4ccccc4nc3[n+]2CC)Sc2ccc3ccccc3c21 [Dye D-114]	0.05 µg/mL	60	3 µg/mL	
CCN1/C(=C(\C=C\c2oc3ccccc3[n+]2CC)c2ccccc2)Sc2ccccc21.[I-] [Dye D-139]		100		CX (IC50 in the CX-1 cell line) ([1]; colonies after 7-10 days): 0.03 µg/mL; CV (IC50 in the CV-1 cell line) ([2]; colonies after 7-10 days): 3.0 µg/mL
CCC(/C=C1\Sc2ccc(Cl)cc2N1C)=C\c1oc2ccc(-c3ccccc3)cc2[n+]1C [Dye D-147]	0.05 µg/mL	160	8 µg/mL	
CC[n+]1c(/C=C/C=C2\Sc3ccccc3N2CC#N)oc2ccccc21 [Dye D-124]	0.1 µg/mL	100	10 µg/mL	IC50 ([1]; CX-1, Table XXI, oxathiacarbocyanine nitrogen substituents, CX-1 cells, read-out: CX): 0.1 µg/mL; CV/C ([1]; Table XXI, selectivity ratio, value of 1 where dye inactive): 100.0; IC50 ([2]; CV-1, Table XXI, oxathiacarbocyanine nitrogen substituents, CV-1 cells, read-out: CV): 10 µg/mL
CC[n+]1c(/C=C/C=C2/c3c(C)ccc(C)c3C(C)(Cc3ccccc3)N2C)sc2ccccc21 [Dye D-132]	0.007 µg/mL	430 and 428.57	3 µg/mL	IC50 [1, 5]: 0.007 µg/mL; Selectivity [1]: 428.57; CV/CX ([1]; Table XVI): 428.6; IC50 [2, 6]: 3 µg/mL
CCN1/C(=C/C=C/c2oc3ccc(OC)cc3[n+]2CC)Sc2ccccc21.[I-] [Dye D-136]		>60.0 and 60		CX (IC50 in the CX-1 cell line) ([1]; colonies after 7-10 days): <0.005 µg/mL; CV (IC50 in the CV-1 cell line) ([2]; colonies after 7-10 days): 0.3 µg/mL
CCN1/C(=C/C=C/C=C/c2sc3cc4ccccc4cc3[n+]2CC)Sc2cc3ccccc3cc21 [Dye D-162]		60	3 µg/mL	
C(=C\c1cc[n+]2c3c(cccc13)Sc1ccccc1-2)/C=c1\ccn2c3ccccc3sc3cccc1c3-2 [Dye D-117]	0.1 µg/mL	70	7 µg/mL	
CCN1/C(=C/C(C)=C/c2sc3ccc4ccccc4c3[n+]2CC)Oc2ccc3ccccc3c21 [drawing 40|E|Me]		3.33 and 2.0		CX (IC50 in the CX-1 cell line) ([1]; colonies after 7-10 days): 0.03 µg/mL and 0.05 µg/mL; CV (IC50 in the CV-1 cell line) ([2]; colonies after 7-10 days): 0.1 µg/mL
CC[n+]1c(/C=C/C=C2\SC=C(C)N2C)oc2ccccc21 [Dye D-120]	0.01 µg/mL	500	5 µg/mL	
CC[n+]1c(/C=C/C=C2\OC=C(c3ccccc3)N2C)sc2ccccc21 [Dye D-145]	< 0.005 µg/mL	60	0.3 µg/mL	
CCN(CC)CCN1/C(=C/C(C)=C/c2sc3ccccc3[n+]2CCN(CC)CC)Sc2ccccc21 [Dye D-121]	0.01 µg/mL	80	0.8 µg/mL	
CN1/C(=C/c2ccc3ccc4ccccc4c3[n+]2C)Sc2ccccc21 [Dye D-130]	0.005 µg/mL	100	0.5 µg/mL	
CCN1/C(=C/C=c2\s/c(=C\c3sc4ccccc4[n+]3CC)n(CCC(=O)O)c2=O)Sc2ccccc21 [Dye D-167]		100.0	10 µg/mL	
CC[n+]1c(/C=C/C=C2\[Te]c3ccccc3N2C)sc2ccccc21 [Dye D-152]		60		IC50 ([1]; CX-1, read-out: CX): < 0.005 µg/mL; IC50 [1, 7]: < 0.005 µg/mL; CV/CX ([1]; Table XVI): >60.0; CX ([1]; Table XVII, benzotellurazole derivatives, CX-1 cells): <0.005; CV/CX ([1]; Table XVII): >60.0; IC50 ([2]; CV-1, read-out: CV): 0.3 µg/mL; IC50 [2, 8]: 0.3 µg/mL
CCN1/C(=C/C=C/c2sc3ccccc3[n+]2CC)[Se]c2ccc(OC)cc21 [Dye D-134]		80		IC50 [1, 7]: 0.0025 µg/mL; IC50 [2, 8]: 0.2 µg/mL
CC[n+]1c(/C=C/C=C2/c3c(C)ccc(C)c3C(C)(Cc3ccccc3)N2C)sc2ccc3ccccc3c21 [Dye D-133]	0.009 µg/mL	333.5	3 µg/mL	Selectivity [1]: 333.5
CCN1/C(=C/C=C/c2oc3ccccc3[n+]2CC)Sc2ccc(O)cc21.[I-] [Dye D-128]		60		CV (IC50 in the CV-1 cell line) ([2]; colonies after 7-10 days): 0.3 µg/mL
CCSC(=C\c1oc2ccccc2[n+]1C)/C=C1\Sc2ccccc2N1CC.[I-] [Dye D-127]		60		CV (IC50 in the CV-1 cell line) ([2]; colonies after 7-10 days): 0.3 µg/mL
CCN1C=C(c2ccccc2)O/C1=C\C=C\c1sc2ccccc2[n+]1CC [Dye D-123]	0.005 µg/mL	80	0.4 µg/mL	IC50 [1, 5]: 0.005 µg/mL; CV/CX ([1]; Table XVI): 80.0; IC50 [2, 6]: 0.4 µg/mL
CCSC(=C\c1oc2ccccc2[n+]1CC)/C=C1\Sc2ccccc2N1CC.[I-] [Dye D-142]				CX (IC50 in the CX-1 cell line) ([1]; colonies after 7-10 days): <0.005 µg/mL; CV (IC50 in the CV-1 cell line) ([2]; colonies after 7-10 days): 0.5 µg/mL
CCN1/C(=C/C=N/c2sc3ccccc3[n+]2CC)Sc2ccccc21 [Dye D-149]	0.09 µg/mL	77.8	7 µg/mL	
CCN1C(=O)/C(=C\C=C2/Oc3ccccc3N2CC)S/C1=N\c1sc2ccccc2[n+]1CC [Dye D-107]	0.05 µg/mL	60	3 µg/mL	
CCN1/C(=C/C=C/c2oc3ccccc3[n+]2CC)Sc2cccc(-c3ccccc3)c21.[I-] [Dye D-106]		80		CX (IC50 in the CX-1 cell line) ([1]; colonies after 7-10 days): 0.01 µg/mL; CV (IC50 in the CV-1 cell line) ([2]; colonies after 7-10 days): 0.8 µg/mL
CCN1/C(=C\C=c2\s/c(=C/c3sc4ccccc4[n+]3CC)n(C)c2=O)Sc2ccccc21 [Dye D-111]	0.03 µg/mL	270 and 266.7	8 µg/mL	
CCN1/C(=C/C=C/c2sc3ccccc3[n+]2CC)[Se]c2ccc(Cl)cc21 [Dye D-135]		>200.0 and 200		IC50 [1, 7]: < 0.005 µg/mL; Selectivity [1]: 200; IC50 [2, 8]: 1 µg/mL
CC(=CC(C)=C1Sc2ccccc2N1C)c1sc2ccccc2[n+]1C [drawing 38|M|Me|H|Me]		2.5		CX (IC50 in the CX-1 cell line) ([1]; colonies after 7-10 days): 0.2 µg/mL; CV (IC50 in the CV-1 cell line) ([2]; colonies after 7-10 days): 0.5 µg/mL
CCN1/C(=C/C=C/c2cc3scc([S-])[n+]3c3ccccc23)Oc2ccccc21 [Dye D-141]	< 0.005 µg/mL	100	0.5 µg/mL (≈ 1.24 µM)	
CCN1/C(=C/C=C/c2sc3ccccc3[n+]2CC)C(C)(C)c2ccccc21 [3H-indole (3,3-Me)]				CX ([1]; Table XVI, unsymmetrical dyes, CX-1 cells): 0.16; CV/CX ([1]; Table XVI): 0.3
